From the supplement of paper PMC10307832

Legend:
Test in all cases: relative viability (nuclei count vs DMSO), 5 days (fraction); higher = more cells survive
A-427 = system: A-427
Summary of the method: (§1)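 One day after seeding in 1536-well plates, lung cancer cell lines were dosed by pin tool. Dosing was either single-drug or a fixed anchor-drug dose plus five library-drug doses (not always all listed) in √10 steps. After 5 days, nuclei were stained in one fix-and-stain step and counted on 4× images, and relative viability is the nuclei count of treated wells over that of vehicle wells, given as the median of duplicate plates.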

CAL-12T = system: CAL-12T
Summary of the method: as §1

H3255 = system: H3255
Summary of the method: as §1

NCI-H1355 = system: NCI-H1355
Summary of the method: as §1

NCI-H1437 = system: NCI-H1437
Summary of the method: as §1

NCI-H1651 = system: NCI-H1651
Summary of the method: as §1

NCI-H1666 = system: NCI-H1666
Summary of the method: as §1

NCI-H1792 = system: NCI-H1792
Summary of the method: as §1

NCI-H1793 = system: NCI-H1793
Summary of the method: as §1

NCI-H2009 = system: NCI-H2009
Summary of the method: as §1

NCI-H2023 = system: NCI-H2023
Summary of the method: as §1

NCI-H2087 = system: NCI-H2087
Summary of the method: as §1

NCI-H23 = system: NCI-H23
Summary of the method: as §1

NCI-H596 = system: NCI-H596
Summary of the method: as §1

NCI-H727 = system: NCI-H727
Summary of the method: as §1

NCI-H838 = system: NCI-H838
Summary of the method: as §1

PC-14 = system: PC-14
Summary of the method: as §1

SK-MES-1 = system: SK-MES-1
Summary of the method: as §1

SW 1573 = system: SW 1573
Summary of the method: as §1

UMC-11 = system: UMC-11
Summary of the method: as §1

NCI-H358 = system: NCI-H358
Summary of the method: as §1

NCI-H522 = system: NCI-H522
Summary of the method: as §1

Oc1nc(-c2ccc(C(F)(F)F)cc2)nc2c1CSCC2 [XAV939] + CC1(C)CCC(c2ccc(Cl)cc2)=C(CN2CCN(c3ccc(C(=O)NS(=O)(=O)c4ccc(N[C@H](CCN5CCOCC5)CSc5ccccc5)c(S(=O)(=O)C(F)(F)F)c4)cc3)CC2)C1 [Navitoclax] (partner 0.5 µM)
relative viability (A-427; first compound 0.08 µM): 1.03 | relative viability (A-427; first compound 0.253 µM): 0.989 | relative viability (A-427; first compound 0.8 µM): 0.9 | relative viability (A-427; first compound 2.53 µM): 0.809 | relative viability (CAL-12T; first compound 0.08 µM): 1.39 | relative viability (CAL-12T; first compound 0.253 µM): 1.07 | relative viability (CAL-12T; first compound 0.8 µM): 1.28 | relative viability (CAL-12T; first compound 2.53 µM): 1.03 | relative viability (H3255; first compound 0.08 µM): 0.511 | relative viability (H3255; first compound 0.253 µM): 0.445 | relative viability (H3255; first compound 0.8 µM): 0.403 | relative viability (H3255; first compound 2.53 µM): 0.366 | relative viability (NCI-H1355; first compound 0.08 µM): 0.913 | relative viability (NCI-H1355; first compound 0.253 µM): 0.825 | relative viability (NCI-H1355; first compound 0.8 µM): 0.805 | relative viability (NCI-H1355; first compound 2.53 µM): 0.637 | relative viability (NCI-H1437; first compound 0.08 µM): 1.14 | relative viability (NCI-H1437; first compound 0.253 µM): 0.931 | relative viability (NCI-H1437; first compound 0.8 µM): 1.12 | relative viability (NCI-H1437; first compound 2.53 µM): 0.888 | relative viability (NCI-H1651; first compound 0.08 µM): 1.12 | relative viability (NCI-H1651; first compound 0.253 µM): 1.01 | relative viability (NCI-H1651; first compound 0.8 µM): 0.995 | relative viability (NCI-H1651; first compound 2.53 µM): 0.894 | relative viability (NCI-H1666; first compound 0.08 µM): 0.847 | relative viability (NCI-H1666; first compound 0.253 µM): 0.721 | relative viability (NCI-H1666; first compound 0.8 µM): 0.903 | relative viability (NCI-H1666; first compound 2.53 µM): 0.469 | relative viability (NCI-H1792; first compound 0.08 µM): 0.595 | relative viability (NCI-H1792; first compound 0.253 µM): 0.589 | relative viability (NCI-H1792; first compound 0.8 µM): 0.601 | relative viability (NCI-H1792; first compound 2.53 µM): 0.572 | relative viability (NCI-H1793; first compound 0.08 µM): 0.593 | relative viability (NCI-H1793; first compound 0.253 µM): 0.442 | relative viability (NCI-H1793; first compound 0.8 µM): 0.369 | relative viability (NCI-H1793; first compound 2.53 µM): 0.452 | relative viability (NCI-H2009; first compound 0.08 µM): 1.17 | relative viability (NCI-H2009; first compound 0.253 µM): 1.12 | relative viability (NCI-H2009; first compound 0.8 µM): 1.13 | relative viability (NCI-H2009; first compound 2.53 µM): 1.06 | relative viability (NCI-H2023; first compound 0.08 µM): 0.968 | relative viability (NCI-H2023; first compound 0.253 µM): 0.843 | relative viability (NCI-H2023; first compound 0.8 µM): 0.862 | relative viability (NCI-H2023; first compound 2.53 µM): 0.827 | relative viability (NCI-H2087; first compound 0.08 µM): 1.13 | relative viability (NCI-H2087; first compound 0.253 µM): 0.668 | relative viability (NCI-H2087; first compound 0.8 µM): 1 | relative viability (NCI-H2087; first compound 2.53 µM): 0.95 | relative viability (NCI-H23; first compound 0.08 µM): 0.859 | relative viability (NCI-H23; first compound 0.253 µM): 0.776 | relative viability (NCI-H23; first compound 0.8 µM): 0.531 | relative viability (NCI-H23; first compound 2.53 µM): 0.755 | relative viability (NCI-H596; first compound 0.08 µM): 0.887 | relative viability (NCI-H596; first compound 0.253 µM): 1.09 | relative viability (NCI-H596; first compound 0.8 µM): 0.901 | relative viability (NCI-H596; first compound 2.53 µM): 0.756 | relative viability (NCI-H727; first compound 0.08 µM): 0.407 | relative viability (NCI-H727; first compound 0.253 µM): 0.231 | relative viability (NCI-H727; first compound 0.8 µM): 0.362 | relative viability (NCI-H727; first compound 2.53 µM): 0.44 | relative viability (NCI-H838; first compound 0.08 µM): 1.21 | relative viability (NCI-H838; first compound 0.253 µM): 0.994 | relative viability (NCI-H838; first compound 0.8 µM): 1.07 | relative viability (NCI-H838; first compound 2.53 µM): 0.868 | relative viability (PC-14; first compound 0.08 µM): 1.04 | relative viability (PC-14; first compound 0.253 µM): 0.906 | relative viability (PC-14; first compound 0.8 µM): 1.03 | relative viability (PC-14; first compound 2.53 µM): 0.956 | relative viability (SK-MES-1; first compound 0.08 µM): 1.21 | relative viability (SK-MES-1; first compound 0.253 µM): 1.12 | relative viability (SK-MES-1; first compound 0.8 µM): 1.12 | relative viability (SK-MES-1; first compound 2.53 µM): 1.14 | relative viability (SW 1573; first compound 0.08 µM): 1.16 | relative viability (SW 1573; first compound 0.253 µM): 0.957 | relative viability (SW 1573; first compound 0.8 µM): 0.83 | relative viability (SW 1573; first compound 2.53 µM): 0.792 | relative viability (UMC-11; first compound 0.08 µM): 0.318 | relative viability (UMC-11; first compound 0.8 µM): 0.3 | relative viability (UMC-11; first compound 2.53 µM): 0.271

Oc1nc(-c2ccc(C(F)(F)F)cc2)nc2c1CSCC2 [XAV939] + Nc1nc2[nH]cc(CCc3ccc(C(=O)N[C@@H](CCC(=O)O)C(=O)O)cc3)c2c(=O)[nH]1 [Pemetrexed] (partner 0.2 µM)
relative viability (A-427; first compound 0.08 µM): 0.613 | relative viability (A-427; first compound 0.253 µM): 0.953 | relative viability (A-427; first compound 0.8 µM): 0.962 | relative viability (A-427; first compound 2.53 µM): 0.837 | relative viability (CAL-12T; first compound 0.08 µM): 1.2 | relative viability (CAL-12T; first compound 0.253 µM): 1.13 | relative viability (CAL-12T; first compound 0.8 µM): 1.18 | relative viability (CAL-12T; first compound 2.53 µM): 0.814 | relative viability (H3255; first compound 0.08 µM): 0.576 | relative viability (H3255; first compound 0.253 µM): 0.544 | relative viability (H3255; first compound 0.8 µM): 0.55 | relative viability (H3255; first compound 2.53 µM): 0.465 | relative viability (NCI-H1355; first compound 0.08 µM): 1.02 | relative viability (NCI-H1355; first compound 0.253 µM): 0.944 | relative viability (NCI-H1355; first compound 0.8 µM): 0.962 | relative viability (NCI-H1355; first compound 2.53 µM): 0.852 | relative viability (NCI-H1437; first compound 0.08 µM): 0.294 | relative viability (NCI-H1437; first compound 0.253 µM): 0.272 | relative viability (NCI-H1437; first compound 0.8 µM): 0.326 | relative viability (NCI-H1437; first compound 2.53 µM): 0.276 | relative viability (NCI-H1651; first compound 0.08 µM): 0.576 | relative viability (NCI-H1651; first compound 0.253 µM): 0.513 | relative viability (NCI-H1651; first compound 0.8 µM): 0.545 | relative viability (NCI-H1651; first compound 2.53 µM): 0.4 | relative viability (NCI-H1666; first compound 0.08 µM): 0.822 | relative viability (NCI-H1666; first compound 0.253 µM): 0.865 | relative viability (NCI-H1666; first compound 0.8 µM): 0.864 | relative viability (NCI-H1666; first compound 2.53 µM): 0.925 | relative viability (NCI-H1792; first compound 0.08 µM): 0.967 | relative viability (NCI-H1792; first compound 0.253 µM): 0.726 | relative viability (NCI-H1792; first compound 0.8 µM): 0.813 | relative viability (NCI-H1792; first compound 2.53 µM): 0.72 | relative viability (NCI-H1793; first compound 0.08 µM): 1.08 | relative viability (NCI-H1793; first compound 0.253 µM): 0.797 | relative viability (NCI-H1793; first compound 0.8 µM): 0.936 | relative viability (NCI-H1793; first compound 2.53 µM): 0.678 | relative viability (NCI-H2009; first compound 0.08 µM): 1.22 | relative viability (NCI-H2009; first compound 0.253 µM): 1.08 | relative viability (NCI-H2009; first compound 0.8 µM): 0.979 | relative viability (NCI-H2009; first compound 2.53 µM): 0.978 | relative viability (NCI-H2023; first compound 0.08 µM): 0.279 | relative viability (NCI-H2023; first compound 0.253 µM): 0.197 | relative viability (NCI-H2023; first compound 0.8 µM): 0.208 | relative viability (NCI-H2023; first compound 2.53 µM): 0.199 | relative viability (NCI-H2087; first compound 0.08 µM): 0.706 | relative viability (NCI-H2087; first compound 0.253 µM): 0.636 | relative viability (NCI-H2087; first compound 0.8 µM): 0.64 | relative viability (NCI-H2087; first compound 2.53 µM): 0.552 | relative viability (NCI-H23; first compound 0.08 µM): 0.727 | relative viability (NCI-H23; first compound 0.8 µM): 0.543 | relative viability (NCI-H23; first compound 2.53 µM): 0.52 | relative viability (NCI-H358; first compound 0.08 µM): 0.168 | relative viability (NCI-H358; first compound 0.253 µM): 0.162 | relative viability (NCI-H358; first compound 0.8 µM): 0.165 | relative viability (NCI-H358; first compound 2.53 µM): 0.171 | relative viability (NCI-H522; first compound 0.08 µM): 1.04 | relative viability (NCI-H522; first compound 0.253 µM): 0.88 | relative viability (NCI-H522; first compound 0.8 µM): 0.964 | relative viability (NCI-H522; first compound 2.53 µM): 0.985 | relative viability (NCI-H596; first compound 0.08 µM): 0.544 | relative viability (NCI-H596; first compound 0.253 µM): 0.488 | relative viability (NCI-H596; first compound 0.8 µM): 0.588 | relative viability (NCI-H596; first compound 2.53 µM): 0.435 | relative viability (NCI-H838; first compound 0.08 µM): 0.252 | relative viability (NCI-H838; first compound 0.253 µM): 0.245 | relative viability (NCI-H838; first compound 0.8 µM): 0.244 | relative viability (NCI-H838; first compound 2.53 µM): 0.233 | relative viability (PC-14; first compound 0.08 µM): 0.14 | relative viability (PC-14; first compound 0.253 µM): 0.12 | relative viability (PC-14; first compound 0.8 µM): 0.123 | relative viability (PC-14; first compound 2.53 µM): 0.118 | relative viability (SK-MES-1; first compound 0.08 µM): 1.01 | relative viability (SK-MES-1; first compound 0.253 µM): 0.778 | relative viability (SK-MES-1; first compound 0.8 µM): 0.835 | relative viability (SK-MES-1; first compound 2.53 µM): 0.768 | relative viability (SW 1573; first compound 0.08 µM): 0.876 | relative viability (SW 1573; first compound 0.253 µM): 0.659 | relative viability (SW 1573; first compound 0.8 µM): 0.816 | relative viability (SW 1573; first compound 2.53 µM): 0.731 | relative viability (UMC-11; first compound 0.08 µM): 0.893 | relative viability (UMC-11; first compound 0.253 µM): 0.635 | relative viability (UMC-11; first compound 0.8 µM): 0.731 | relative viability (UMC-11; first compound 2.53 µM): 0.636
